Source: patent publication US20260232633A1, “Compositions and Uses Thereof” (Purposeful IKE, priority 2020, published 2026)
“And” between values parts separate entries of the source, which are not always exact repeats. Equal entries are not always repeated.

Columns and labels:
[1] = tested on: Fmr1 KO mice; test: Open field test (hyperactivity); assay type: in vivo
Procedure: (§1) Fmr1 KO mice backcrossed to the FVB strain and WT littermates were used during experiments. TransnetXY Automated Genotyping (www.transnetyx.com/). TRANSNETYX, INC., 8110 Cordova Rd. Suite 119, Cordova, TN 38016, USA was used for genotyping. The animals were pretreated for 14 days. The active ingredients of Sumatriptan and Ergoloid were in a water carrier, whereas oxitriptan was in a methanol carrier.
(§2) The mice were housed in plastic cages (35×30×12 cm), 5 in each. The room temperature (21±2° C.),relative humidity (55±5%), a 12-h light-dark cycle (lights on 7 a.m.-7 p.m.) and air exchange (16 times per h) were automatically controlled. The animals had free access to commercial food pellets and water. Testing was conducted during the light phase. Ten mice per treatment group were used for the AGS experiments. Experiments were conducted in line with the requirements of the UK Animals (Scientific Procedures) Act, 1986.
All experiments were conducted with the experimenter blind to genotype and drug treatment. Separate investigators prepared and coded dosing solutions, allocated the mice to the study treatment groups, dosed the animals, and collected the Audiogenic Seizure data. […]
For hyperactivity, the open field test (OFT) is a common measure of exploratory behavior and general activity in both mice and rats, where both the quality and quantity of the activity can be measured. […]

[2] = tested on: Fmr1 KO mice; test: Stereotypy: self-grooming; assay type: in vivo; conditions: for Stereotypy: Mean 2 (mean of treated KO group): Table 8, KO-V mean 45.40, WT-V 31.60, doses as E19
Procedure: as §1, §2
(§3) All experiments were conducted with the experimenter blind to genotype and drug treatment. Separate investigators prepared and coded dosing solutions, allocated the mice to the study treatment groups, dosed the animals, and collected the Audiogenic Seizure data.
(§4) Behavior testing was conducted at 2 weeks. The behavioral tests were as follows: 1. Hyperactivity: Open field; 2. Stereotypy: Self-grooming; 3. Sociability: Three chamber partition test; 4. Memory and Learning: Novel Object Recognition; 5. Anxiety: hyponeophagia; and 6. Test of daily living: marble burying
For stereotypy, self-grooming was assessed. Self-grooming in animals is an innate behaviour that is involved in hygiene maintenance and other physiologically important processes, including thermoregulation, social communication and de-arousal. It is one of the most frequently observed behaviours in awake rodents and has a patterned, sequential organization with characteristic cephalocaudal progression (Kalueff 2016).
(§5) The treatment of the mice with OX (Oxitriptan), SU (Sumatriptan), ER (Ergoloid mesylates, also referred to as ergoloid herein) were according to the matrix shown below in Table 1. […]

[3] = tested on: Fmr1 KO mice; test: Sociability: three chamber partition test; assay type: in vivo; design: unit not given here; conditions: for Sociability: Mean Diff., F_KO-V vs. F_ treated KO (Dunnett) / Sociability: Mean Diff., F_KO-V vs. N_ treated KO (Dunnett): against F_KO-V; for Sociability: Mean Diff., F_KO-V vs. F_ treated KO (Dunnett): Sumatriptan 20, Oxitriptan 40, Ergoloid 4, Ergoloid 2 + Oxitriptan 40 mg/kg; for Sociability, F_KO / Sociability, N_KO: individual animal values
Procedure: as §1, §2, §3, §4
For sociability a three chamber partition test was utilized. The three-chamber paradigm test known as Crawley's sociability and preference for social novelty protocol has previously been successfully employed to study social affiliation and social memory in several inbred and mutant mouse lines. The main principle of the test was based on the free choice by a subject mouse to spend time in any of three box's compartments during two experimental sessions, including indirect contact with one or two mice with which it was unfamiliar (Kaidanovich-Beilin 2011).
as §5

[4] = tested on: Fmr1 KO mice; test: Memory and learning: Novel Object Recognition (NOR); assay type: in vivo; design: unit not given here; conditions: for NOR: Mean Diff., F_KO-V vs. F_ treated KO (Dunnett) / NOR: Mean 2 (mean of F_ treated KO group): F_ values; for NOR: Mean Diff., F_KO-V vs. F_ treated KO (Dunnett) / NOR: Mean Diff., F_KO-V vs. N_ treated KO (Dunnett): against F_KO-V; for NOR: Mean Diff., F_KO-V vs. F_ treated KO (Dunnett): Sumatriptan 20, Oxitriptan 40, Ergoloid 4, Ergoloid 2 + Oxitriptan 40 mg/kg; for Novel Object Recognition, F_KO / Novel Object Recognition, N_KO: individual animal values
Procedure: as §1, §2, §3, §4
For memory and learning, a novel object recognition (NOR) task was used to evaluate the rodents' ability to recognize a novel object in the environment. […] The task procedure consists of three phases: habituation, familiarization, and test phase (Antunes 2012).
as §5

[5] = tested on: Fmr1 KO mice; test: Anxiety: hyponeophagia test; assay type: in vivo
Procedure: as §1, §2, §3
Behavior testing was conducted at 2 weeks. […]
For anxiety a hyponeophagia test was conducted. […] The amounts ingested then gradually increase until the animal has determined whether the substance is safe and nutritious. […]

[6] = tested on: Fmr1 KO mice; test: Test of daily living (marble burying / nesting); assay type: in vivo; design: scale not given here; conditions: for Tests of daily living: individual animal values
Procedure: as §1, §2, §3, §4
For test of daily living, nesting was assessed as nest building is an innate behavior in rodents, even when raised in laboratory settings. Synthetic and/or natural materials (such as twine, tissue, cotton, paper, and hay) are provided as a gauge of their overall well-being and as an ancillary assessment to predict the possible decline in cognition. Typically, changes in nesting behaviors, such as failure to create a nest, indicate a change in health or welfare. In addition, nesting behavior is sensitive to many environmental and physiological challenges, as well as many genetic mutations underlying pathological disease states (Gaskill 2013).
(§6) The treatment of the mice with OX (Oxitriptan), SU (Sumatriptan), ER (Ergoloid mesylates, also referred to as ergoloid herein) were according to the matrix shown below in Table 1.
The experimental procedures described above for Example 1 were used in the following tests, as well as the addition of two further behaviour tests as described below. An SSRI (selective serotonin re-uptake inhibitor) was co-dosed with the ergoloid mesylates and oxitriptan to assess the effect of the ergoloid mesylates and oxitriptan treatment on a subject already receiving SSRI treatment.

[7] = tested on: FMR1 mice; test: Behavioral experiments overall (FXS phenotypes); assay type: in vivo
Procedure: as §1, §4, §6
The experimental procedures described above for Example 1 were used in the following tests, as well as the addition of two further behaviour tests as described below. An SSRI (selective serotonin re-uptake inhibitor) was co-dosed with the ergoloid mesylates and oxitriptan to assess the effect of the ergoloid mesylates and oxitriptan treatment on a subject already receiving SSRI treatment. […]

[8] = Jacobsen J P R 2016; cited from earlier work
[9] = Table 12, N_ values, F_KO-V mean 81.60, doses as E34
[10] = Table 11, F_KO-V mean 6.600, doses as E28
[11] = Table 4, WT-V mean 4.800, KO-V 1.200, doses as E7
[12] = Table 10, KO-V mean 1.200, doses as E25
[13] = against KO-V, Sumatriptan 20, Oxitriptan 40, Ergoloid 4, Ergoloid 2 + Oxitriptan 40 mg/kg
[14] = N_ values, against N_WT-V, Sumatriptan 20, Oxitriptan 40, Ergoloid 4, Ergoloid 2 + Sumatriptan 10, Ergoloid 2 + Oxitriptan 40 mg/kg
[15] = against WT-V, Sumatriptan 20, Oxitriptan 40, Ergoloid 4, Ergoloid 2 + Sumatriptan 10, Ergoloid 2 + Oxitriptan 40 mg/kg

SMILES: N[C@@H](Cc1c[nH]c2ccc(O)cc12)C(=O)O [Oxitriptan, 2-amino-3-(5-hydroxy-1H-indol-3-yl)propanoic acid]
- Open Field: Mean Diff., WT-V vs. treated KO (Dunnett) ([1]; against WT-V, 14 days QD, Sumatriptan 20, 5-HTP 80, EM 4, Ergoloid 2 + Sumatriptan 10, Ergoloid 2 + Oxitriptan 40 mg/kg): −512.4
- Stereotypy: Mean 2 (mean of treated KO group) [2]: 38.30
- Sociability: Mean Diff., F_KO-V vs. F_ treated KO (Dunnett) ([3]; F_ values): 29.51
- Sociability, F_KO ([3]; F_KO-Oxitriptan (40 mg/kg)): 51 (2×) and 54 and 52 (2×) and 50 (2×) and 53 (2×) and 55
- Sociability: Mean Diff., F_KO-V vs. N_ treated KO (Dunnett) ([3]; N_ values, doses as E34): −17.20
- Sociability, N_KO ([3]; N_KO-Oxitriptan (40 mg/kg)): 98 (2×) and 97 (2×) and 100 (2×) and 99 (2×) and 96
- Sociability: Mean 2 (mean of N_ treated KO group) [3, 9]: 98.80
- NOR: Mean Diff., F_KO-V vs. F_ treated KO (Dunnett) [4]: −0.03636
- Novel Object Recognition, F_KO ([4]; F_KO-Oxitriptan (40 mg/kg)): 6 (4×) and 5 (3×) and 9 (2×) and 8 (2×)
- NOR: Mean Diff., F_KO-V vs. N_ treated KO (Dunnett) ([4]; N_ values, doses as E28): −4.218
- Novel Object Recognition, N_KO ([4]; N_KO-Oxitriptan (40 mg/kg)): 10 (4×) and 12 and 14 and 8 (2×) and 15 and 13 and 9
- NOR: Mean 2 (mean of F_ treated KO group) [4, 10]: 6.636
- Hyponeophagia ([5]; KO-Oxitriptan (40 mg/kg), individual animal values): 150 and 140 (2×)
- Tests of daily living ([6]; KO-Oxitriptan (40 mg/kg)): 5 (9×) and 4
- Test of daily living: Mean 2 (mean of treated KO group) [6, 11]: 4.900
- Test of daily living: Mean 2 (mean of treated KO group) [6, 12]: 4.900
- Effect on FXS phenotypes in the behavioral experiments (Example 1) [7]: ameliorates the FXS phenotypes
- half life [8]: 2 h

SMILES: CNS(=O)(=O)Cc1ccc2[nH]cc(CCN(C)C)c2c1 [Sumatriptan]
- Open Field: Mean Diff., KO-V vs. treated KO (Dunnett) ([1]; against KO-V, Sumatriptan 20, Oxitriptan 80, Ergoloid 4, Ergoloid 2 + Oxitriptan 40 mg/kg): 846.6
- Stereotypy: Mean 2 (mean of treated KO group) [2]: 30.90
- Stereotypy: Mean Diff., KO-V vs. treated KO (Dunnett) [2, 13]: 14.50
- Sociability: Mean Diff., F_KO-V vs. F_ treated KO (Dunnett) ([3]; F_ values): 19.40
- Sociability, F_KO ([3]; F_KO-Sumatriptan (20 mg/kg)): 61 (2×) and 64 and 65 (2×) and 60 (3×) and 63 (2×)
- Sociability: Mean Diff., F_KO-V vs. N_ treated KO (Dunnett) ([3]; N_ values, doses as E34): −16.60
- Sociability: Mean Diff., N_WT-V vs. N_ treated KO (Dunnett) [3, 14]: 0.9000
- Sociability, N_KO ([3]; N_KO-Sumatriptan (20 mg/kg)): 99 and 97 (2×) and 103 and 98 and 90 and 102 and 100 and 95 and 101
- Sociability: Mean 2 (mean of N_ treated KO group) ([3]; Table 6, N_WT-V mean 99.10, N_KO-V 83.90, doses as E13): 98.20
- Sociability: Mean 2 (mean of F_ treated KO group) ([3]; Table 12, F_ values, F_KO-V mean 81.60, doses as E34): 62.20
- Sociability: Mean 2 (mean of N_ treated KO group) [3, 9]: 98.20
- NOR: Mean Diff., F_KO-V vs. F_ treated KO (Dunnett) [4]: −0.2000
- Novel Object Recognition, F_KO ([4]; F_KO-Sumatriptan (20 mg/kg)): 9 (2×) and 5 (2×) and 8 (2×) and 7 (2×) and 4 and 6
- NOR: Mean Diff., F_KO-V vs. N_ treated KO (Dunnett) ([4]; N_ values, doses as E28): −0.7000
- NOR: Mean Diff., N_WT-V vs. N_ treated KO (Dunnett) [4, 14]: 6.600
- Novel Object Recognition, N_KO ([4]; N_KO-Sumatriptan (20 mg/kg)): 6 (3×) and 8 (2×) and 9 (3×) and 5 and 7
- NOR: Mean 2 (mean of N_ treated KO group) ([4]; Table 5, N_WT-V mean 13.90, N_KO-V 6.700, doses as E10): 7.300
- NOR: Mean 2 (mean of F_ treated KO group) [4, 10]: 6.800
- NOR: Mean 2 (mean of N_ treated KO group) ([4]; Table 11, N_ values, F_KO-V mean 6.600, doses as E28): 7.300
- Hyponeophagia: Mean Diff., WT-V vs. treated KO (Dunnett) [5, 15]: −9.200
- Tests of daily living ([6]; KO-Sumatriptan (20 mg/kg)): 5 (7×) and 4 (3×)
- Test of daily living: Mean 2 (mean of treated KO group) [6, 11]: 4.700
- Test of daily living: Mean 2 (mean of treated KO group) [6, 12]: 4.700
- Test of daily living: Mean Diff., KO-V vs. treated KO (Dunnett) [6, 13]: −3.500
- Test of daily living: Mean Diff., WT-V vs. treated KO (Dunnett) [6, 15]: 0.1000
